Data taken from patent US20040091935A1, “Strains of Mycoplasma hyorhinis as causative agent for systemic sclerosis” (priority 2002, published 2004).
Entries after “also recorded” stand apart in the source; their conditions may differ. Starred links: 1 amine or outer side, 2 acyl side, 3 side chain; linkers in the order of their positions; H or OH if unused. Positions of bridges follow the written chain, without caps; N, C: chain ends. Non-standard residues stand in square brackets, D forms with d. Residues, ends and D or L forms follow the SMILES beside them. Chains are numbered I, II in the order given. Actinocin(9to1) = Cc1c2oc3c(C)ccc(C(=O)[*:1])c3nc-2c(C(=O)[*:2])c(N)c1=O; NMeV = CN[C@H](C(=O)O)C(C)C; Sar = CNCC(=O)O

Tested on: Mycoplasma hyorhinis
Experiment: Plaque assay of the infectious agent on Vero cell monolayers with antibiotics
Format: cell-based
Details: ciprofloxacin 0.5 mg/ml, doxicycline 1 mg/ml, antibiotic added for 24 hours or 7 days, assay sensitivity 10 pfu/ml, FIG. 12

Compound	Plaque formation induced by the infectious agent
Cc1c2oc3c(C)ccc(C(=O)N[C@@H]4C(=O)N[C@H](C(C)C)C(=O)N5CCC[C@H]5C(=O)N(C)CC(=O)N(C)[C@@H](C(C)C)C(=O)O[C@@H]4C)c3nc-2c(C(=O)N[C@@H]2C(=O)N[C@H](C(C)C)C(=O)N3CCC[C@H]3C(=O)N(C)CC(=O)N(C)[C@@H](C(C)C)C(=O)O[C@@H]2C)c(N)c1=O [actinomycin D] (I: T[dV]P[Sar][NMeV] / II: T[dV]P[Sar][NMeV]; ester I:1-I:C, II:1-II:C; linker I:N-II:N via Actinocin(9to1))	prevented plaque formation
C[C@H]1c2cccc(O)c2C(O)=C2C(=O)[C@]3(O)C(O)=C(C(N)=O)C(=O)[C@@H](N(C)C)[C@@H]3[C@@H](O)[C@@H]21 [doxicyclin]	prevented plaque formation; also recorded: inhibited
